# Data as given in ChEMBL document CHEMBL1131224, “Design and synthesis of cyclic inhibitors of matrix metalloproteinases and TNF-alpha production” (J Med Chem, 1998).
# What was measured:
# Stromelysin-1 = Stromelysin-1 (Homo sapiens, UniProt P08254); assay: Inhibition of MMP-3 (Matrix metalloprotease-3)
# [1] = target: Matrix metalloproteinase-9 (Homo sapiens, UniProt P14780); assay: Inhibition of MMP-9 (Matrix metalloprotease-9)
# Homo sapiens = species on record: Homo sapiens; assay: In vitro inhibition for TNF-alpha production from LPS-stimulated human whole blood; format: functional
# Interstitial collagenase = target: T1, Interstitial collagenase (Homo sapiens, UniProt P03956); assay: Inhibition of MMP-1 (Matrix metalloprotease-1)
# T1 sequence (P03956 whole entry): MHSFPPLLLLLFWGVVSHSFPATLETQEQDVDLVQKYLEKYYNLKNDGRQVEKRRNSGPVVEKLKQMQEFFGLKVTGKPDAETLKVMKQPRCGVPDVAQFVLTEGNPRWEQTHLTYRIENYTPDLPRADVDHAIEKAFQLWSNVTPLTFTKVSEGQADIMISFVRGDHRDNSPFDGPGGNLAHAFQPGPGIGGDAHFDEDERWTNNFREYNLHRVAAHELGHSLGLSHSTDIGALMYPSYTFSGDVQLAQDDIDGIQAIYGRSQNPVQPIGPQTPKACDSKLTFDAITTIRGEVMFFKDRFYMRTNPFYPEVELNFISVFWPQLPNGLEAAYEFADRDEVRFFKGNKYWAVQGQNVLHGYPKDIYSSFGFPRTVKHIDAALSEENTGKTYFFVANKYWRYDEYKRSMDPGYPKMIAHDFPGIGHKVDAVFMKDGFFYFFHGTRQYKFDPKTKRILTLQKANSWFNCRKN
# Chain of Stromelysin-1 (P08254 whole entry): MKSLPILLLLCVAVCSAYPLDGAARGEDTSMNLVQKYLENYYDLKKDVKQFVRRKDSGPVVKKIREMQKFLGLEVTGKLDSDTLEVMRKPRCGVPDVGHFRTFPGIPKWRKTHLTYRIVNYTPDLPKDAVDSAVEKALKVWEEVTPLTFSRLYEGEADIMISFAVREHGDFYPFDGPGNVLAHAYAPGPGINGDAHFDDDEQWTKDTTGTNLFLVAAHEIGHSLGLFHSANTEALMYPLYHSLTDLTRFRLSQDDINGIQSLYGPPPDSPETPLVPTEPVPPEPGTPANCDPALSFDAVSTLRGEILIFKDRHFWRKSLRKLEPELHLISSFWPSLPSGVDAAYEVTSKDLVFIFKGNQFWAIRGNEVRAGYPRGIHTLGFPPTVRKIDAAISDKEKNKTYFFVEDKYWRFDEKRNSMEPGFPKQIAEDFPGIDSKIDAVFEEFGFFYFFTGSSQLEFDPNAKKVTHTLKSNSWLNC
# Chain of Matrix metalloproteinase-9 (P14780 whole entry): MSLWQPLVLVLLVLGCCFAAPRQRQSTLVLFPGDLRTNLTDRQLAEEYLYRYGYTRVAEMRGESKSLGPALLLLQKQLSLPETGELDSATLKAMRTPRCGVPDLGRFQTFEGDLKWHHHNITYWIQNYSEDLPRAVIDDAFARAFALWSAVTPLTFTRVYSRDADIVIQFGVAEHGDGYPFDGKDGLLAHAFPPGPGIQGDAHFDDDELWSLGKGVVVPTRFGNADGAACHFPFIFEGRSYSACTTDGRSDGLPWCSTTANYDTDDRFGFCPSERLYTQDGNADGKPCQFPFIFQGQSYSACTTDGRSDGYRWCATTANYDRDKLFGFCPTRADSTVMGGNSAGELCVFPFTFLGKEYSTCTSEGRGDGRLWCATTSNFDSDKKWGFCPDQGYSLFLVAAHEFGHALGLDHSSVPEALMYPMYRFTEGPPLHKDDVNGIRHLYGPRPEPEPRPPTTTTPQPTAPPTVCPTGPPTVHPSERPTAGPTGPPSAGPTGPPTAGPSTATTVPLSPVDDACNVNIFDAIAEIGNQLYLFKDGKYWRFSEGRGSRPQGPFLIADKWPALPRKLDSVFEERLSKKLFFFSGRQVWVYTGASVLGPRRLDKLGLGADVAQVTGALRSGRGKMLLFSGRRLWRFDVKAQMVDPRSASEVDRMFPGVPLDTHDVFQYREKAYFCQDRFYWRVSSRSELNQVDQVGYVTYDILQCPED
Ki (Stromelysin-1),Ki [1],IC50 (Homo sapiens),Ki (Interstitial collagenase),Structure (SMILES)
24.1 nM,2.6 nM,6500 nM,2.8 nM,CNC(=O)[C@@H]1CCCCNC(=O)CO[C@H](C(=O)NO)[C@@H](CC(C)C)C(=O)N1
1.93 nM,0.13 nM,1800 nM,0.87 nM,CNC(=O)[C@@H](Cc1ccc(OC)cc1)NC(=O)[C@H](CC(C)C)[C@H](C)C(=O)NO
32.7 nM,1.8 nM,1200 nM,1.2 nM,CNC(=O)[C@@H]1Cc2ccc(cc2)OCCC[C@H](C(=O)NO)[C@@H](CC(C)C)C(=O)N1
